Test results: patent US20250011316A1, “PEROXIREDOXIN 3 INHIBITORS AND METHODS OF USE FOR TREATING CANCER” (Wake Forest University Health Sciences, priority 2022, published 2025)
In brackets after ≈: the same amount, converted by molar mass.

Key:
[1] = tested on: human SK—OV-3 ovarian cancer cells; experiment: Cellular Activity Assay (cytotoxicity, crystal violet); assay type: cell-based; details: Homo sapiens, SK—OV-3 cells, treated for 48 hr, 0.1-100 μM, crystal violet absorbance at 540 nm
Description: (§1) To test the activity of compounds, two complimentary assays were used as described below. The Biochemical PRX3 Inhibition Assay tests the ability of each compound to crosslink PRX3 in a simple, in vitro system. In the Cellular Activity Assay, we are testing the ability of compounds to kill SK—OV-3 ovarian cancer cells.
The Cellular Activity Assay measures the EC50 of each compound in human SK—OV-3 ovarian cancer cells TS to be taken into the cell, transported to the mitochondria, and crosslink PRX3.
The cytotoxicity of compounds was measured as described in Nelson et al. (2021) Antioxidants (Basel) 10, 150; Cunniff et al. (2015) PloS one 10, e0127310; and Newick et al. (2012) PloS one 7, e39404. SK—OV-3 is an adherent, epithelial, adenocarcinoma cell line obtained from ATCC (ref #: HTB-77). SK—OV-3 cells are resistant to the commonly used chemotherapeutics, cis-platinum and doxorubicin. For this […], SK—OV-3 cells were plated in a 96-well plate. After 24 h recovery, the cells were treated for 48 hr with multiple concentrations of each compound ranging from 0.1-100 μM.
Cells were washed with PBS to remove dead cells and the remaining live cells were fixed with 3.0% formaldehyde and stained with 0.1% crystal violet. The amount of crystal violet was determined by reading the absorbance at 540 nm (crystal violet dye dissolved in 100% methanol) using a plate reader. The signal for crystal violet dye is proportional to the biomass of remaining live cells. GraphPad Prism9 software was used to calculate the effective inhibitory concentration (EC50) of test compounds. Results for each compound, are normalized to the amount of cells in control wells treated with the equivalent concentration of DMSO (negative control). TS or Compound 4 were included in each set of assays as a positive control.

[2] = target: T1, purified human PRX3 (Homo sapiens, UniProt P30048); experiment: Biochemical PRX3 Inhibition Assay (non-reducible crosslink by SDS PAGE + single adduct by MALDI-TOF MS); details: 100 μM PRX3 with TRX2/thioredoxin reductase/NADPH system and hydrogen peroxide, 1-2 hr at 37° C.
T1 construct: made in house
T1 sequence (P30048 62-256): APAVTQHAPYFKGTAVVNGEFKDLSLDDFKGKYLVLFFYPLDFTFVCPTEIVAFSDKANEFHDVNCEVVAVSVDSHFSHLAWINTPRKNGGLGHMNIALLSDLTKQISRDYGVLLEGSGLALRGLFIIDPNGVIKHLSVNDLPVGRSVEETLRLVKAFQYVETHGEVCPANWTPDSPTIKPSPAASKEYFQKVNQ
Description: The compounds described herein generally react with two essential cysteine residues in the mitochondrial peroxidase PRX3, leading to the formation of a non-reducible, covalent crosslink of two PRX3 monomers. This crosslink inactivates PRX3. Increased PRX3 crosslink is associated with mitochondrial stress, increased cell death in cell models of malignant mesothelioma and is associated with decreased tumor volume in a mouse model. Cunniff et al. (2015) PloS one 10, e0127310.
as §1
This assay tests the ability of each compound to form a covalent adduct with PRX3. The assay is performed as described in Nelson et al. (2021) Antioxidants (Basel) 10, 150; and Cunniff et al. (2015) PloS one 10, e0127310, and follows the appearance of non-reducible PRX3 crosslinks by SDS PAGE gel electrophoresis and follows the appearance of single PRX3 adducts by mass spectrometry. For this assay, purified human PRX3, hydrogen peroxide (the PRX3 substrate) and all the components required to enable PRX3 to catalytically cycle (thioredoxin-thioredoxin reductase-NAPDH system) are included (details below).
The biochemical PRX3 Inhibition assay contains 100 μM PRX3, 50 μM human TRX2, 0.5 μM mouse thioredoxin reductase, and a NADPH regenerating system composed of 3.2 mM glucose 6-phosphate, 3.2 U/ml glucose 6-phosphate dehydrogenase and 0.4 mM NADPH. Samples are incubated for 1-2 hr at 37° C. with either 0.2 mM TS (positive control), compounds or an equivalent volume of DMSO (negative control). During this incubation, hydrogen peroxide is added to induce turnover of PRX3. Reactions are stopped by the addition of a buffer containing 100 mM dithiothreitol (to break disulfide bonds) and SDS (detergent to denature proteins). NADPH, Glucose 6-Phosphate, and glucose 6-phosphate dehydrogenase were purchased from Sigma Aldrich. PRX3, thioredoxin, and thioredoxin reductase were all purified to >98% purity in the Lowther laboratory according to protocols referenced in Nelson et al. (2021) Antioxidants (Basel) 10, 150; and Cunniff et al. (2015) PloS one 10, e0127310.
To measure the amount of PRX3 crosslink, proteins in the reaction were separated by SDS-polyacrylamide gel electrophoresis and stained for total protein using GelCode Blue (Life Technologies). The amount of unmodified PRX3 and TS-PRX3 crosslink was measured by densiometric analysis of the signal for the PRX3 band running at the MW of a PRX3 crosslink (˜46 kDa) compared to the PRX3 signal at the MW of the un-modified PRX3 (−23 kD).
To measure covalent adduct formation on a single PRX3 monomer, each reaction was exchanged into a mass spectrometry compatible buffer containing 40 mM ammonium citrate, pH 8.3 made in HPLC water. Sample was mixed 1:1 with a matrix solution containing 30 mg/mL sinapinic acid in 70% (vol/vol) acetonitrile, 0.2% formic acid and spotted to onto the sample plate. PRX3 mass was measured by MALDI-TOF MS analysis on a Bruker Daltonics MALDI-TOF MS spectrometer. Spectra were analyzed in FLEXAnalysis Software. The intensity of the reduced PRX3 peak (SH) and intensity of the analog adduct peak was determined and corrected for background signal at the adduct peak in the DMSO control. The fraction of single analog adduct in the monomer peak was determined by dividing the intensity of the adduct peak by the summed intensity of the SH and adduct peaks.

[3] = Solubility Assay (HPLC); assay type: physicochemical; details: HEPES/NaCl buffer, aqueous with cosolvent or surfactant or cyclodextrin, kinetic from dmso stock; 20 mM HEPES, 100 mM NaCl, pH 7.5, 18-24 hours at ambient temperature; read-out: Solubility
Procedure: A 20 mM stock solution was made for each compound in DMSO. To measure solubility, 0.03-0.05 mL of the stock was added to 0.27 mL 20 mM HEPES, 100 mM NaCl, pH 7.5. The solution was mixed and rotated 18-24 hours at ambient temperature. The next day, solutions were centrifuged for 10 min at 20,000×g at […] to remove insoluble, solid material. Next, 100 μL of the supernatant containing the soluble compound was added to 900 μL DMSO and High Performance Liquid Chromatography was performed as described in Table 1 and either HIPLC gradient 1 (Table 2) or HIPLC gradient 2 (Table 3). For each analog, a 200 μM standard and a 20 μM standard were prepared and run in parallel (standards were dissolved completely in […]). The amount ofLcompound in the experimental sample was calculated by comparing the area under the curve for compound peak to the area for the closest standard and correcting for dilution.

[4] = tested on: Enterococcus hirae (ATCC #10541); experiment: Antimicrobial Activity Assay (MIC / growth inhibition); assay type: cell-based; details: ATCC10541; Enterococcus hirae; analogs tested at 20 μM final concentration
Procedure: The overnight growth was then diluted into growth media to make a single solution of E. hirae with a final optical density at 600 nm=0.02 AU. A 20 mM stock solution of Thiostrepton in DMSO was made and used to make multiple dilutions of TS in DMSO. Each TS dilution (0.1 mL) was then added to a test tube containing 10 mL of the diluted E. hirae and grown at 37° C. overnight while shaking at 180 rpm. The next morning, each tube was visually inspected to determine if the cells grew. Final concentrations tested were 0.120, 0.090, 0.075, 0.060, 0.045, 0.030, and 0.015 μM TS. […] Three replicates were made on three separate days (n=9). […] For TS analogs, the dilute E. hirae was treated with 20 μM final concentration of each analog (three replicates each). […] DMSO was used as a positive control (complete cell growth) and 20 μM thiostrepton was used as a negative control.

PRX3 Inhibition (Crosslink + Mono-adduct) [2]	solubility [3]	MIC [4]	SMILES	EC50 [1]	EC50 ([1]; SK-OV-3, 48 h)
++ (50-90%)	100 to 1000 µM (≈ 46.5 to 465 µg/mL)	> 20 µM	C=C(NC(=O)c1csc(C2CCN(C(=O)OC(C)(C)C)CC2)n1)C(=O)NC(=C)C(=O)OC [Compound 1, Tert-butyl 4-(4-((3-((3-methoxy-3-oxoprop-1-en-2-yl)amino)-3-oxoprop-1-en-2-yl)carbamoyl)thiazol-2-yl)piperidine-1-carboxylate]	1 to 10 µM	
++ (50-90%)	100 to 1000 µM (≈ 46.5 to 465 µg/mL)	> 20 µM	C=C(NC(=O)c1csc(C2CCCN(C(=O)OC(C)(C)C)C2)n1)C(=O)NC(=C)C(=O)OC (centres unmarked) [Compound 3, Tert-butyl 3-(4-((3-((3-methoxy-3-oxoprop-1-en-2-yl)amino)-3-oxoprop-1-en-2-yl)carbamoyl)thiazol-2-yl)piperidine-1-carboxylate]	10 to 25 µM	
++ (50-90%)	< 100 µM	> 20 µM	C=C(NC(=O)c1csc(-c2ccc(NC(=O)CCCCCBr)cc2)n1)C(=O)NC(=C)C(=O)OC [Compound 4, Methyl 2-(2-(2-(4-(6-bromohexanamido)phenyl)thiazole-4-carboxamido)acrylamido)acrylate]	1 to 10 µM	
+++ (>90%)	< 100 µM	> 20 µM	C=C(NC(=O)c1csc(-c2ccc(C(=O)NCCCCCCOS(C)(=O)=O)nc2)n1)C(=O)NC(=C)C(=O)OC [Compound 6, Methyl 2-(2-(2-(6-((6-((methylsulfonyl)oxy)hexyl)carbamoyl)pyridine-3-yl)thiazole-4-carboxamido)acrylamido)acrylate]	1 to 10 µM	
++ (50-90%)	< 100 µM	> 20 µM	C=C(NC(=O)c1csc(-c2ccc(OC)cc2)n1)C(=O)NC(=C)C(=O)OC [Compound 7, Methyl 2-(2-(2-(4-methoxyphenyl)thiazole-4-carboxamido)acrylamido)acrylate]	1 to 10 µM	
+++ (>90%)	< 100 µM	> 20 µM	C=C(NC(=O)c1csc(C2=CCN(C(=O)OC(C)(C)C)CC2)n1)C(=O)NC(=C)C(=O)OC [Compound 9, Tert-butyl 4-(4-((3-((3-methoxy-3-oxoprop-1-en-2-yl)amino)-3-oxoprop-1-en-2-yl)carbamoyl)thiazol-2-yl)-3,6-dihydropyridine-1(2H)-carboxylate]	1 to 10 µM	
+++ (>90%)	< 100 µM	> 20 µM	C=C(NC(=O)c1csc(-c2ccc(C(=O)NCCOC)cc2)n1)C(=O)NC(=C)C(=O)OC [Compound 10, Methyl 2-(2-(2-(4-((2-methoxyethyl)carbamoyl)phenyl)thiazole-4-carboxamido)acrylamido)acrylate]	1 to 10 µM	

SMILES	PRX3 Inhibition (Crosslink + Mono-adduct) [2]	solubility [3]	MIC [4]	EC50 [1]	EC50 ([1]; SK-OV-3, 48 h)
C=C(NC(=O)c1csc(-c2ccc(NC(=O)OC(C)(C)C)nc2)n1)C(=O)NC(=C)C(=O)OC [Compound 2, Methyl 2-(2-(2-(6-((tert-butoxycarbonyl)amino)pyridine-3-yl)thiazole-4-carboxamido)acrylamido acrylate]	++ (50-90%)	< 100 µM	> 20 µM		1 to 10 µM
C=C(NC(=O)c1csc(-c2ccc(NC(=O)OC(C)(C)C)cc2)n1)C(=O)NC(=C)C(=O)OC [Compound 5, Methyl 2-(2-(2-(4-((tert-butoxycarbonyl)amino)phenyl)thiazole-4-carboxamido)acrylamido)acrylate]	+++ (>90%)	< 100 µM	> 20 µM	1 to 10 µM	
C=C(NC(=O)c1csc(-c2ccc(CNC(=O)OC(C)(C)C)cc2)n1)C(=O)NC(=C)C(=O)OC [Compound 8, Methyl 2-(2-(2-(4-(((tert-butoxycarbonyl)amino)methyl)phenyl)thiazole-4-carboxamido)acrylamido)acrylate]	+++ (>90%)	< 100 µM	> 20 µM	1 to 10 µM	
C=C(NC(=O)c1csc(N2CCC[C@@H](NC(=O)OC(C)(C)C)C2)n1)C(=O)NC(=C)C(=O)OC [Compound 11, Methyl (R)-2-(2-(2-(3-((tert-butoxycarbonyl)amino)piperidin-1-yl)thiazole-4-carboxamido)acrylamido)acrylate]	+++ (>90%)	< 100 µM	> 20 µM	1 to 10 µM	
